In US20060069132A1, “Azolecarboxamide herbicides” (priority 2004, published 2006):

Assays:
pigweed = assay: Test C pre-/postemergence herbicide test; format: in vivo, Amaranthus retroflexus; conditions: preemergence; for Plant response rating (0 = no effect, 100 = complete control), Pigweed: 125 g ai/ha
Summary of the method: (§1)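 Greenhouse-grown plants were evaluated visually 12 to 14 days after treatment, with 100 meaning complete control and 0 no effect. Application was preemergence, or postemergence at 2 to 18 cm.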

eastern black nightshade = assay: Test C pre-/postemergence herbicide test; format: in vivo, Solanum ptycanthum; conditions: preemergence; for Plant response rating (0 = no effect, 100 = complete control), Nightshade: 125 g ai/ha
Summary of the method: as §1

Surinam grass = assay: Test C pre-/postemergence herbicide test; format: in vivo, Urochloa decumbens; conditions: preemergence; for Plant response rating (0 = no effect, 100 = complete control), Surinam Grass: 125 g ai/ha
Summary of the method: as §1

large crabgrass = assay: Test B pre-/postemergence herbicide test; format: in vivo, Digitaria sanguinalis; conditions: for Plant response rating (0 to 100 scale), Crabgrass, Large: 0 is no effect
Summary of the method: (§2)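 Flooded paddy rice and barnyardgrass were treated at the 2-leaf stage; upland plantings received compound either on sown seed or on 1- to 4-leaf seedlings. All were kept 13–15 days in a greenhouse and scored visually, 0–100, relative to untreated plants.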

corn = assay: Test B pre-/postemergence herbicide test; format: in vivo, Zea mays; conditions: for Plant response rating (0 to 100 scale), Corn: 0 is no effect, preemergence
Summary of the method: as §2

velvetleaf = assay: Test C pre-/postemergence herbicide test; format: in vivo, Abutilon theophrasti; conditions: preemergence; for Plant response rating (0 = no effect, 100 = complete control), Velvetleaf: 125 g ai/ha
Summary of the method: as §1

cocklebur = assay: Test C pre-/postemergence herbicide test; format: in vivo, Xanthium strumarium; conditions: preemergence; for Plant response rating (0 = no effect, 100 = complete control), Cocklebur: 125 g ai/ha
Summary of the method: as §1

soybean = assay: Test C pre-/postemergence herbicide test; format: in vivo, Glycine max; conditions: preemergence; for Plant response rating (0 = no effect, 100 = complete control), Soybean: 125 g ai/ha
Summary of the method: as §1

[1] = 500 g ai/ha, scale 0 to 100 (0 no effect, 100 complete control), visual, 12 to 14 days
[2] = 125 g ai/ha, 100 is complete control, preemergence
[3] = 125 g ai/ha, visual rating, scale 0 (no effect) to 100 (complete control), postemergence
[4] = Postemergence, 500 g ai/ha, scale 0 (no effect) to 100 (complete control)
[5] = 125 g ai/ha, 100 is complete control
[6] = postemergence, 500 g ai/ha, scale 0 to 100, 0 is no effect, 100 is complete control

| SMILES | Plant response rating, Pigweed (pigweed; 62 g ai/ha, scale 0 to 100) | Plant response rating (0 = no effect, 100 = complete control), Pigweed (pigweed) | Plant response rating, Pigweed (pigweed; [1]) | Plant response rating, Nightshade (eastern black nightshade; 62 g ai/ha, scale 0 to 100) | Plant response rating (0 = no effect, 100 = complete control), Nightshade (eastern black nightshade) | Plant response rating, Nightshade (eastern black nightshade; [1]) | Plant response rating, Surinam Grass (Surinam grass; 62 g ai/ha, scale 0 to 100) | Plant response rating (0 = no effect, 100 = complete control), Surinam Grass (Surinam grass) | Plant response rating, Surinam Grass (Surinam grass; [1]) | Plant response rating (0 to 100 scale), Crabgrass, Large (large crabgrass; [2]) | Crabgrass, Large plant response rating (large crabgrass; [3]) | Corn plant response rating (corn; [3]) | Plant response rating, Velvetleaf (velvetleaf; 62 g ai/ha, scale 0 to 100) | Plant response rating (0 = no effect, 100 = complete control), Velvetleaf (velvetleaf) | Plant response rating, Velvetleaf (velvetleaf; [1]) | Plant response rating, Cocklebur (cocklebur; 62 g ai/ha, scale 0 to 100) | Plant response rating (0 = no effect, 100 = complete control), Cocklebur (cocklebur) | Plant response rating, Cocklebur (cocklebur; 250 g ai/ha, scale 0-100) | Plant response rating, Cocklebur (cocklebur; [1]) | Plant response rating, Soybean (soybean; 62 g ai/ha, scale 0 to 100) | also measured |
| --- | --- | --- | --- | --- | --- | --- | --- | --- | --- | --- | --- | --- | --- | --- | --- | --- | --- | --- | --- | --- | --- |
| Cc1nn(C(C)(C)C)nc1C(=O)Nc1cccc(C(=O)N(C)C)c1 [Compound 391] | 95 | 100 | 100 | 90 | 95 | 95 | 85 | 95 | 95 | 100 | 10 | 10 | 100 | 100 | 100 | 20 | 45 | 80 | 80 | 95 | Plant response rating, Pigweed (pigweed; 250 g ai/ha, scale 0-100): 100; Plant response rating, Nightshade (eastern black nightshade; 250 g ai/ha, scale 0-100): 95; Plant response rating, Surinam Grass (Surinam grass; 250 g ai/ha, scale 0-100): 95; Crabgrass, Large plant response rating (large crabgrass; [4]): 30; Plant response rating (0 to 100 scale), Corn (corn; [5]): 90; Corn plant response rating (corn; [4]): 30; Plant response rating, Velvetleaf (velvetleaf; 250 g ai/ha, scale 0-100): 100; Plant response rating (0 = no effect, 100 = complete control), Soybean (soybean): 95; Plant response rating, Soybean (soybean; 250 g ai/ha, scale 0-100): 100; Plant response rating, Soybean (soybean; [1]): 100 |
| CCC1=NN(C(C)(C)C)CC1C(=O)Nc1cc(C(=O)N(C)CC)ccc1F (racemic) [Compound 342] | 80 | 90 | 100 | 60 | 80 | 85 | 40 | 90 | 100 | 40 | 10 | 10 | 50 | 60 | 100 | 10 | 30 | 60 | 100 | 10 | Plant response rating, Pigweed (pigweed; 250 g ai/ha, scale 0-100): 100; Plant response rating, Nightshade (eastern black nightshade; 250 g ai/ha, scale 0-100): 80; Plant response rating, Surinam Grass (Surinam grass; 250 g ai/ha, scale 0-100): 100; Plant response rating, Crabgrass, Large (large crabgrass; 500 g ai/ha, visual rating, 0 = no effect, 100 = complete control, preemergence): 100; Crabgrass, Large plant response rating (large crabgrass; [6]): 20; Corn plant response rating (corn; [6]): 30; Plant response rating, Velvetleaf (velvetleaf; 250 g ai/ha, scale 0-100): 100; Plant response rating (0 = no effect, 100 = complete control), Soybean (soybean): 60; Plant response rating, Soybean (soybean; 250 g ai/ha, scale 0-100): 100; Plant response rating, Soybean (soybean; [1]): 100 |
| CCNC(=O)c1ccc(F)c(N(C(C)=O)C(=O)c2cc(C(C)(C)C)nn2CC)c1 [Compound 399] | 100 | 100 | 100 | 95 | 100 | 100 | 95 | 95 | 100 | 100 | 20 | 10 | 95 | 100 | 100 | 15 | 65 | 70 | 80 | 75 | Crabgrass, Large plant response rating (large crabgrass; [4]): 30; Plant response rating (0 to 100 scale), Corn (corn; [5]): 90; Corn plant response rating (corn; [4]): 40; Plant response rating (0 = no effect, 100 = complete control), Soybean (soybean): 85; Plant response rating, Soybean (soybean; [1]): 100 |
